Target: GMPPNP-loaded KRAS G12C (Homo sapiens, UniProt P01116, G12C)
Experiment: KRAS G12C RAF Disruption Assay (HTRF)
Type: biochemical
Details: recombinant GMPPNP-loaded KRAS G12C (5 nM), 20 min with compound; GST-RAF1 RBD (9 nM); HTRF signal; read-out: KRASG12C RAF Disruption Assay (IC50)
Protocol: KRAS^G12C RAF Disruption Assay
This is a functional assay that measures activity of compounds against KRAS-G12C^(ON), i.e., the active form of KRAS G12C. Recombinant GMPPNP-loaded KRAS G12C (5 nM) was treated with compound at room temperature for 20 minutes in assay buffer (50 mM Tris pH 7.5, 100 mM NaCl, 1 mM MgCl2, 1 mM DTT, 100ug/ml BSA). Recombinant GST-RAF1 RBD (9 nM) was added, and the reaction mixture was incubated for 20 minutes. SA-Tb (0.25 nM) was added, and the reaction mixture was incubated for 3 hours. HTRF signal was measured (PerkinElmer Envision), the signal ratio (λem 520/λem 495) was calculated, and IC50 values were calculated from the dose-response curve.

GMPPNP-loaded KRAS G12C, sequence (P01116 1-188 isoform P01116-2 G12C): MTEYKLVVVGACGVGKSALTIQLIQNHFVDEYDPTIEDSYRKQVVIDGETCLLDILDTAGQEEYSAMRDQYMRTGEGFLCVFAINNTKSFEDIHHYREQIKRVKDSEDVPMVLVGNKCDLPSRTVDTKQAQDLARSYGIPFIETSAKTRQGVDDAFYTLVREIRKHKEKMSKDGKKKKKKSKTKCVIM

SMILES | IC50 [nM]
CN1CCC[C@H]1COc1nc(N2CCN(C(=O)/C(F)=C/c3nccs3)[C@@H](CC#N)C2)c2cnc(-c3cccc4cccc(Cl)c34)c(F)c2n1 [Compound 21A, 2-((S)-4-(7-(8-chloronaphthalen-1-yl)-8-fluoro-2-(((S)-1-methylpyrrolidin-2-yl)methoxy)pyrido[4,3-d]pyrimidin-4-yl)-1-((Z)-2-fluoro-3-(thiazol-2-yl)acryloyl)piperazin-2-yl)acetonitrile] | 67
C#Cc1cccc2cccc(-c3ncc4c(N5C[C@H](C)N(C(=O)/C(F)=C/c6ccccn6)C[C@H]5C)nc(OC[C@@]56CCCN5C[C@H](F)C6)nc4c3F)c12 [Compound 83, (Z)-1-((2S,5R)-4-(7-(8-ethynylnaphthalen-1-yl)-8-fluoro-2-(((2R, 7aS)-2-fluorotetrahydro-1H-pyrrolizin-7a(5H)-yl)methoxy)pyrido[4,3-d]pyrimidin-4-yl)-2,5-dimethylpiperazin-1-yl)-2-fluoro-3-(pyridin-2-yl)prop-2-en-1-one] | 2600
C#Cc1c(F)ccc2cc(O)cc(-c3ncc4c(N5C[C@H]6CC[C@@H](C5)N6C(=O)/C(F)=C/c5cnccn5)nc(OC[C@@]56CCCN5C[C@H](F)C6)nc4c3F)c12 [Compound 16, (Z)-1-((1R, 5S)-3-(7-(8-ethynyl-7-fluoro-3-hydroxynaphthalen-1-yl)-8-fluoro-2-(((2R, 7aS)-2-fluorotetrahydro-1H-pyrrolizin-7a(5H)-yl)methoxy)pyrido[4,3-d]pyrimidin-4-yl)-3,8-diazabicyclo[3.2.1]octan-8-yl)-2-fluoro-3-(pyrazin-2-yl)prop-2-en-1-one] | 180
C#Cc1c(F)ccc2cc(O)cc(-c3ncc4c(N5C[C@H]6CC[C@@H](C5)N6C(=O)/C(F)=C/c5cccc(COC)n5)nc(OC[C@@]56CCCN5C[C@H](F)C6)nc4c3F)c12 [Compound 15, (Z)-1-((1R, 5S)-3-(7-(8-ethynyl-7-fluoro-3-hydroxynaphthalen-1-yl)-8-fluoro-2-(((2R, 7aS)-2-fluorotetrahydro-1H-pyrrolizin-7a(5H)-yl)methoxy)pyrido[4,3-d]pyrimidin-4-yl)-3,8-diazabicyclo[3.2.1]octan-8-yl)-2-fluoro-3-(6-(methoxymethyl)pyridin-2-yl)prop-2-en-1-one] | 60
C#Cc1c(F)ccc2cc(O)cc(-c3ncc4c(N5C[C@H]6CC[C@@H](C5)N6C(=O)/C(F)=C/c5ccccn5)nc(OC[C@@]56CCCN5C[C@H](F)C6)nc4c3F)c12 [Compound 2, (Z)-1-((1R, 5S)-3-(7-(8-ethynyl-7-fluoro-3-hydroxynaphthalen-1-yl)-8-fluoro-2-(((2R, 7aS)-2-fluorotetrahydro-1H-pyrrolizin-7a(5H)-yl)methoxy)pyrido[4,3-d]pyrimidin-4-yl)-3,8-diazabicyclo[3.2.1]octan-8-yl)-2-fluoro-3-(pyridin-2-yl)prop-2-en-1-one] | 32
C#Cc1cccc2cccc(-c3ncc4c(N5CCC6(CCN6C(=O)/C(F)=C/c6ncccn6)C5)nc(OC[C@@]56CCCN5C[C@H](F)C6)nc4c3F)c12 (single isomer, unassigned) [Compound 105] | 9700
C#Cc1c(F)ccc2cc(O)cc(-c3ncc4c(N5C[C@H]6CC[C@@H](C5)N6C(=O)/C(F)=C/c5cccc(OC)n5)nc(OC[C@@]56CCCN5C[C@H](F)C6)nc4c3F)c12 [Compound 17, (Z)-1-((1R, 5S)-3-(7-(8-ethynyl-7-fluoro-3-hydroxynaphthalen-1-yl)-8-fluoro-2-(((2R, 7aS)-2-fluorotetrahydro-1H-pyrrolizin-7a(5H)-yl)methoxy)pyrido[4,3-d]pyrimidin-4-yl)-3,8-diazabicyclo[3.2.1]octan-8-yl)-2-fluoro-3-(6-methoxypyridin-2-yl)prop-2-en-1-one] | 2600
N#CC[C@H]1CN(c2nc(OC[C@@]34CCCN3C[C@H](F)C4)nc3c(F)c(-c4ccccc4C4CC4)ncc23)CCN1C(=O)/C(F)=C/c1nccs1 [Compound 80, 2-((2S)-4-(7-(2-cyclopropylphenyl)-8-fluoro-2-(((2R, 7aS)-2-fluorotetrahydro-1H-pyrrolizin-7a(5H)-yl)methoxy)pyrido[4,3-d]pyrimidin-4-yl)-1-((Z)-2-fluoro-3-(thiazol-2-yl)acryloyl)piperazin-2-yl)acetonitrile] | 30
C#Cc1c(F)ccc2cc(O)cc(-c3ncc4c(N5C[C@H]6CC[C@@H](C5)N6C(=O)/C(F)=C/c5ccncn5)nc(OC[C@@]56CCCN5C[C@H](F)C6)nc4c3F)c12 [Compound 18, (Z)-1-((1R, 5S)-3-(7-(8-ethynyl-7-fluoro-3-hydroxynaphthalen-1-yl)-8-fluoro-2-(((2R, 7aS)-2-fluorotetrahydro-1H-pyrrolizin-7a(5H)-yl)methoxy)pyrido[4,3-d]pyrimidin-4-yl)-3,8-diazabicyclo[3.2.1]octan-8-yl)-2-fluoro-3-(pyrimidin-4-yl)prop-2-en-1-one] | 25

The next lines start with the values.

IC50 [nM] | SMILES
880 | N#CC[C@H]1CN(c2nc(OC[C@@]34CCCN3C[C@H](F)C4)nc3c(F)c(-c4cc(F)ccc4F)ncc23)CCN1C(=O)/C(F)=C/c1ccccn1 [Example 40, 2-((S)-4-(7-(2,5-difluorophenyl)-8-fluoro-2-(((2R, 7aS)-2-fluorotetrahydro-1H-pyrrolizin-7a(5H)-yl)methoxy)pyrido[4,3-d]pyrimidin-4-yl)-1-((Z)-2-fluoro-3-(pyridin-2-yl)acryloyl)piperazin-2-yl)acetonitrile]
5 | C#Cc1c(F)ccc2cc(O)cc(-c3ncc4c(N5CCN(C(=O)/C(F)=C/c6ncco6)CC5)nc(OC[C@@]56CCCN5C[C@H](F)C6)nc4c3F)c12 [Example 54, (Z)-1-(4-(7-(8-ethynyl-7-fluoro-3-hydroxynaphthalen-1-yl)-8-fluoro-2-(((2R, 7aS)-2-fluorotetrahydro-1H-pyrrolizin-7a(5H)-yl)methoxy)pyrido[4,3-d]pyrimidin-4-yl)piperazin-1-yl)-2-fluoro-3-(oxazol-2-yl)prop-2-en-1-one]
970 | N#Cc1cccc2[nH]cc(-c3ncc4c(N5CCN(C(=O)/C(F)=C/c6nccs6)CC5)nc(OC[C@@]56CCCN5C[C@H](F)C6)nc4c3F)c12 [Compound 134, 3-(8-fluoro-4-(4-((Z)-2-fluoro-3-(thiazol-2-yl)acryloyl)piperazin-1-yl)-2-(((2R, 7aS)-2-fluorotetrahydro-1H-pyrrolizin-7a(5H)-yl)methoxy)pyrido[4,3-d]pyrimidin-7-yl)-1H-indole-4-carbonitrile]
1600 | C#Cc1cccc2cccc(-c3ncc4c(N(C)C5CCN(C(=O)/C(F)=C/c6nccs6)C5C)nc(OC[C@@]56CCCN5C[C@H](F)C6)nc4c3F)c12 (single isomer, unassigned) [Example 73 trans isomer 1]
100 | C#Cc1cccc2cccc(-c3ncc4c(N5CCN(C(=O)/C(F)=C/c6nccs6)CC5)nc(OC[C@@]56CCCN5C[C@H](F)C6)nc4c3F)c12 [Example 47, (Z)-1-(4-(7-(8-ethynylnaphthalen-1-yl)-8-fluoro-2-(((2R, 7aS)-2-fluorotetrahydro-1H-pyrrolizin-7a(5H)-yl)methoxy)pyrido[4,3-d]pyrimidin-4-yl)piperazin-1-yl)-2-fluoro-3-(thiazol-2-yl)prop-2-en-1-one]
< 2 | C#Cc1c(F)ccc2cc(O)cc(-c3ncc4c(N5CCN(C(=O)/C(F)=C/c6ncccn6)C[C@@H]5C)nc(OC[C@@]56CCCN5C[C@H](F)C6)nc4c3F)c12 [Example 66, (Z)-1-((S)-4-(7-(8-ethynyl-7-fluoro-3-hydroxynaphthalen-1-yl)-8-fluoro-2-(((2R, 7aS)-2-fluorotetrahydro-1H-pyrrolizin-7a(5H)-yl)methoxy)pyrido[4,3-d]pyrimidin-4-yl)-3-methylpiperazin-1-yl)-2-fluoro-3-(pyrimidin-2-yl)prop-2-en-1-one]
910 | C#Cc1cccc2cccc(-c3ncc4c(N(C)C5CCN(C(=O)/C(F)=C/c6ccccn6)C5C)nc(OC[C@@]56CCCN5C[C@H](F)C6)nc4c3F)c12 (single isomer, unassigned) [Example 74 cis isomer 2]
5 | CN(c1nc(OC[C@@]23CCCN2C[C@H](F)C3)nc2c(F)c(-c3c(F)cc(F)c4sc(N)nc34)ncc12)[C@@H]1CCN(C(=O)/C(F)=C/c2ccccn2)C1 [Compound 119, (Z)-1-((3R)-3-((7-(2-amino-5,7-difluorobenzo[d]thiazol-4-yl)-8-fluoro-2-(((7aS)-2-fluorotetrahydro-1H-pyrrolizin-7a(5H)-yl)methoxy)pyrido[4,3-d]pyrimidin-4-yl)(methyl)amino)pyrrolidin-1-yl)-2-fluoro-3-(pyridin-2-yl)prop-2-en-1-one]
540 | C#Cc1cccc2cccc(-c3ncc4c(N5CCN(C(=O)/C(F)=C/c6ncco6)CC5)nc(OC[C@@]56CCCN5C[C@H](F)C6)nc4c3F)c12 [Compound 124, (Z)-1-(4-(7-(8-ethynylnaphthalen-1-yl)-8-fluoro-2-(((2R, 7aS)-2-fluorotetrahydro-1H-pyrrolizin-7a(5H)-yl)methoxy)pyrido[4,3-d]pyrimidin-4-yl)piperazin-1-yl)-2-fluoro-3-(oxazol-2-yl)prop-2-en-1-one]
400 | N#CC[C@H]1CN(c2nc(OC[C@@]34CCCN3C[C@H](F)C4)nc3c(F)c(-c4csc5ccccc45)ncc23)CCN1C(=O)/C(F)=C/c1nccs1 [Example 34, 2-((S)-4-(7-(benzo[b]thiophen-3-yl)-8-fluoro-2-(((2R, 7aS)-2-fluorotetrahydro-1H-pyrrolizin-7a(5H)-yl)methoxy)pyrido[4,3-d]pyrimidin-4-yl)-1-((Z)-2-fluoro-3-(thiazol-2-yl)acryloyl)piperazin-2-yl)acetonitrile]
